Measured values reported in ChEMBL document CHEMBL3991601, “The target landscape of clinical kinase drugs” (Science, 2017).
Structures can show the parent of a compound that is named as a salt. Calls of active or inactive are those of the source.

Experiments:
[1] = biological target: T1, cGMP-dependent protein kinase 1 (Homo sapiens, UniProt Q13976)
T1 sequence (Q13976 whole entry): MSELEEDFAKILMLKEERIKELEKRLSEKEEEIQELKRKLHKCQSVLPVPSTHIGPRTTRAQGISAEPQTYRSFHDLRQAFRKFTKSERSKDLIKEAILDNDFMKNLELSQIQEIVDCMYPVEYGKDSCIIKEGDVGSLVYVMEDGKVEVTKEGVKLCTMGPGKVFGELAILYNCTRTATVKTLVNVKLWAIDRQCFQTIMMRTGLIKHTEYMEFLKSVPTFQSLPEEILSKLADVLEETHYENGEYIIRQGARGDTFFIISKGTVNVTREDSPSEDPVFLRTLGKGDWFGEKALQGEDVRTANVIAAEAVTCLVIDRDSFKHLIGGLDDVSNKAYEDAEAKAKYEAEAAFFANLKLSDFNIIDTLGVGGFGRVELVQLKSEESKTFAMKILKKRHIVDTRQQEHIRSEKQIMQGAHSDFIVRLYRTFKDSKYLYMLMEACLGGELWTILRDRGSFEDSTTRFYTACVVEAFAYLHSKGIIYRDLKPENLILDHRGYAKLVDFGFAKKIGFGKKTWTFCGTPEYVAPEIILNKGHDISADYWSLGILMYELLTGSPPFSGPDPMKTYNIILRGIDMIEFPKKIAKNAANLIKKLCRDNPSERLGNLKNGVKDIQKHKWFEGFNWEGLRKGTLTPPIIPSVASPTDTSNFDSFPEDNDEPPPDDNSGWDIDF

[2] = biological target: cAMP-dependent protein kinase catalytic subunit gamma (Homo sapiens, UniProt P22612)
Sequence of cAMP-dependent protein kinase catalytic subunit gamma (P22612 whole entry): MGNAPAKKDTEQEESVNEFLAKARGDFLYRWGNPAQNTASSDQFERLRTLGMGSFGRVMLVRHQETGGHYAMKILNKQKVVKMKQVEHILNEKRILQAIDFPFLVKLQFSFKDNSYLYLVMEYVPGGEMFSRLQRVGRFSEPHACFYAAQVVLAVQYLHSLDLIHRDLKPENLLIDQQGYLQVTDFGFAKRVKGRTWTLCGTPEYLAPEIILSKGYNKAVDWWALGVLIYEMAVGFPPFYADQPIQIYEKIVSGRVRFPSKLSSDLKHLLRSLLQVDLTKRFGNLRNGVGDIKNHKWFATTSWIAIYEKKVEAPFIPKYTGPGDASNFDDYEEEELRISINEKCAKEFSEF

[3] = biological target: Insulin-like growth factor 1 receptor (Homo sapiens, UniProt P08069)
Sequence of Insulin-like growth factor 1 receptor (P08069 31-736 limits assumed): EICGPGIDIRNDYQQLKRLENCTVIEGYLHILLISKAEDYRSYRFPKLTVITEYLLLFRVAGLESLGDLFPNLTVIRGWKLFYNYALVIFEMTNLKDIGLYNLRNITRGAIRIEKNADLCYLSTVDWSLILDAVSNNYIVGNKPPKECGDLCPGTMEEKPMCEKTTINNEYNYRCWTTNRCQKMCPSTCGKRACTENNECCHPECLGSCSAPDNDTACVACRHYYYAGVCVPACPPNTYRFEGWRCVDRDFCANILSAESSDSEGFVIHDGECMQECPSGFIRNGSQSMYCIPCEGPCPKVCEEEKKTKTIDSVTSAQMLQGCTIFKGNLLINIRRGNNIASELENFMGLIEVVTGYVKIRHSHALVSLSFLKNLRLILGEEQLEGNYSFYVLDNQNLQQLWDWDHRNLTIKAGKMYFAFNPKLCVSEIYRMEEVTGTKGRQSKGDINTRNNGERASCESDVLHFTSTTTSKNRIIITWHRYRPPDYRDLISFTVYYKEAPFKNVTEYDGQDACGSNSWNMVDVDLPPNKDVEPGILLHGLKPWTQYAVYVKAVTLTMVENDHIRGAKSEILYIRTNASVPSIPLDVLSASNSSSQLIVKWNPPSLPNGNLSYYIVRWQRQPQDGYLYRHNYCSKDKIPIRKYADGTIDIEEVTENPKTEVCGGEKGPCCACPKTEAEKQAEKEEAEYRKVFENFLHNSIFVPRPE
Sequence of Insulin-like growth factor 1 receptor (P08069 741-1367 limits assumed): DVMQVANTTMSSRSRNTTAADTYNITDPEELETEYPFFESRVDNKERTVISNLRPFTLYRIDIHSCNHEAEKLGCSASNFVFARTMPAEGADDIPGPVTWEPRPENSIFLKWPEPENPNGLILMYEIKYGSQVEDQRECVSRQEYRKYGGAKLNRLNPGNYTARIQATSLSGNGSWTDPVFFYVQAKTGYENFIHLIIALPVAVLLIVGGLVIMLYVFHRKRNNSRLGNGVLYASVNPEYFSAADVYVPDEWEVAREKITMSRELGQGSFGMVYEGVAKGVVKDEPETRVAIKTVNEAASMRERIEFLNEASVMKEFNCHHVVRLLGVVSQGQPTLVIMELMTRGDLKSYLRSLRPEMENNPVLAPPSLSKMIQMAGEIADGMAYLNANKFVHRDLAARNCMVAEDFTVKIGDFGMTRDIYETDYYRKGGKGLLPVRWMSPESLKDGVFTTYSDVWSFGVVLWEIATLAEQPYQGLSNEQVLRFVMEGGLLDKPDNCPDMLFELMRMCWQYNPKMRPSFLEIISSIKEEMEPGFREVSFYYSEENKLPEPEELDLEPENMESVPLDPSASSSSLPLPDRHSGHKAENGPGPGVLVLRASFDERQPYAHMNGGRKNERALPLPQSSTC

[4] = biological target: Mitotic checkpoint serine/threonine-protein kinase BUB1 (Homo sapiens, UniProt O43683)
Sequence of Mitotic checkpoint serine/threonine-protein kinase BUB1 (O43683 whole entry): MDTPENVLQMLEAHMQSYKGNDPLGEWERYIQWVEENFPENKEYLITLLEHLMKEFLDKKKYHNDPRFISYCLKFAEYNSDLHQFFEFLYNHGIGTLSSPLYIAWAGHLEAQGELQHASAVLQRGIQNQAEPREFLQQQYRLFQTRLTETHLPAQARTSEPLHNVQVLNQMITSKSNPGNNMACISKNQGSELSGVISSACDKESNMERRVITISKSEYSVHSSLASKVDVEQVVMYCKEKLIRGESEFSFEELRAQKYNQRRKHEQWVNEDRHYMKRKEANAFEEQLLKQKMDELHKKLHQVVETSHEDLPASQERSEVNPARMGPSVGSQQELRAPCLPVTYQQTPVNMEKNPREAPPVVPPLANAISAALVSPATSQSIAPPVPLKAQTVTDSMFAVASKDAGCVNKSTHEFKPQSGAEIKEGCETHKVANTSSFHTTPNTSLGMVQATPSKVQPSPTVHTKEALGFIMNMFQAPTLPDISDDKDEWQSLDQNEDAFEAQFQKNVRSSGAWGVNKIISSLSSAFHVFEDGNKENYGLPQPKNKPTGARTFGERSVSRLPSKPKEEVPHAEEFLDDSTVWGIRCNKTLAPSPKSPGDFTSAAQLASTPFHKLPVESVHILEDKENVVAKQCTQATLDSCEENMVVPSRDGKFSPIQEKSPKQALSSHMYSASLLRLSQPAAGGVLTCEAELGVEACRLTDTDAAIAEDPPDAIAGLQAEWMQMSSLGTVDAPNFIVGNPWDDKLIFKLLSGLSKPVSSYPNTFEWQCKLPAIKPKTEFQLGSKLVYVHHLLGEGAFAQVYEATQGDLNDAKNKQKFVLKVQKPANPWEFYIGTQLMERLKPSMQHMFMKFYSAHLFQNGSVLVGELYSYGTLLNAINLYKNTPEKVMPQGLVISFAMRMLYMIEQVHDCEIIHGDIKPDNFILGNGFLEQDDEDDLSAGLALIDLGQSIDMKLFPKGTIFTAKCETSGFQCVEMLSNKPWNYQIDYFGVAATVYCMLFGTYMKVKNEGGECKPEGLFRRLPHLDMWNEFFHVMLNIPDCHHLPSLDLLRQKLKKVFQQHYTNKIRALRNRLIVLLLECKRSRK

[5] = biological target: T2, Signal recognition particle receptor subunit alpha (Homo sapiens, UniProt P08240)
T2 sequence (P08240 whole entry): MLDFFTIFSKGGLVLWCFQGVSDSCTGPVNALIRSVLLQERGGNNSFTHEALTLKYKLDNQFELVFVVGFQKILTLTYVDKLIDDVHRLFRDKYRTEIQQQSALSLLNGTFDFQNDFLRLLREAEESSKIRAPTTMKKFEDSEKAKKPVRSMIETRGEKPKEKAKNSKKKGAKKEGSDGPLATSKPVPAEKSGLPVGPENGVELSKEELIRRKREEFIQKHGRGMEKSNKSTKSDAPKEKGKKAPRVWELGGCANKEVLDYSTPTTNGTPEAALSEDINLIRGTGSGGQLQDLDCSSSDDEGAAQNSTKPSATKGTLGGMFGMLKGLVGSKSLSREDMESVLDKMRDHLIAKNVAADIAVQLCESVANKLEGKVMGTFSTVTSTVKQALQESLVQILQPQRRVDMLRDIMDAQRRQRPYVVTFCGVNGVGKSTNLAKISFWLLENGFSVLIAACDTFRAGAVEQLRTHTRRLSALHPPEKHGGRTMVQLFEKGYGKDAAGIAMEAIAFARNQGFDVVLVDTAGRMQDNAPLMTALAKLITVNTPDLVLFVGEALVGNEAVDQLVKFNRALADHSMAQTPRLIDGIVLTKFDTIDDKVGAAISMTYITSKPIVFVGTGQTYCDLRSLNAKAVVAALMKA

[6] = biological target: T3, Cyclin-G-associated kinase (Homo sapiens, UniProt O14976)
T3 sequence (O14976 whole entry): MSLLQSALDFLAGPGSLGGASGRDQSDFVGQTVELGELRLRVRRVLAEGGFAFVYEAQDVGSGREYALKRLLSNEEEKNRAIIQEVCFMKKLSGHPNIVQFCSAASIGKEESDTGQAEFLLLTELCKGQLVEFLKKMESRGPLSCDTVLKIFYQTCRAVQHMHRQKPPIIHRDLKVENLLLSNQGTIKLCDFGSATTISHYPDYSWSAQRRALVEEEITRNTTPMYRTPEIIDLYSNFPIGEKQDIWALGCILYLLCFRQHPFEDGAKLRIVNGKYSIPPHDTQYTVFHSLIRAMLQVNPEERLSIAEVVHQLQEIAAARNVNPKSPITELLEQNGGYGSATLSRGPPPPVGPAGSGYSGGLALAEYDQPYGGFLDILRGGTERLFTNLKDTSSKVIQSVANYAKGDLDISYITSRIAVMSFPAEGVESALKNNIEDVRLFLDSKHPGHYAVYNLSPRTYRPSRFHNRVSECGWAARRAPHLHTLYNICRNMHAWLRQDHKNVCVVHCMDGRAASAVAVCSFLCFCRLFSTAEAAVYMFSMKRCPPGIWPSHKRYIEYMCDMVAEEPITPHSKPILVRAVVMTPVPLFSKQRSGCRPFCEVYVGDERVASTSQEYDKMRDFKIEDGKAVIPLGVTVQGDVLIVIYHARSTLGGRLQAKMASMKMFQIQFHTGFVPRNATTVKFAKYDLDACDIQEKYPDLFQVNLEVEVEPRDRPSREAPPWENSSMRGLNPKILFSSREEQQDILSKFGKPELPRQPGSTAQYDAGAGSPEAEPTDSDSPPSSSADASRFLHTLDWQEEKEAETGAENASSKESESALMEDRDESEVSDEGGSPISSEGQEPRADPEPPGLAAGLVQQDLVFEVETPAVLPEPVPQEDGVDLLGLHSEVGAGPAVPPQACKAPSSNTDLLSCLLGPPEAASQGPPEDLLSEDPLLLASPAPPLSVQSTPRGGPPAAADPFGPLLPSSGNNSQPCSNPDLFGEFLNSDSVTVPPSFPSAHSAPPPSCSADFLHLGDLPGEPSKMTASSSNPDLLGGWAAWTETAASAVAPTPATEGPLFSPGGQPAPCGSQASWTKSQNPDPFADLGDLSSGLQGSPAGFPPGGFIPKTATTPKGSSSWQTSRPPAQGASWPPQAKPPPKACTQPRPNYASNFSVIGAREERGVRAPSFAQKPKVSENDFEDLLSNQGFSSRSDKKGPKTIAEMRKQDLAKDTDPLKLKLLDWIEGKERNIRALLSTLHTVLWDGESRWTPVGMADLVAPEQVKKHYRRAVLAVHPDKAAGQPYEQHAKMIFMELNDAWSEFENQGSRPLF

[7] = biological target: Dual specificity protein kinase CLK2 (Homo sapiens, UniProt P49760)
Sequence of Dual specificity protein kinase CLK2 (P49760 whole entry): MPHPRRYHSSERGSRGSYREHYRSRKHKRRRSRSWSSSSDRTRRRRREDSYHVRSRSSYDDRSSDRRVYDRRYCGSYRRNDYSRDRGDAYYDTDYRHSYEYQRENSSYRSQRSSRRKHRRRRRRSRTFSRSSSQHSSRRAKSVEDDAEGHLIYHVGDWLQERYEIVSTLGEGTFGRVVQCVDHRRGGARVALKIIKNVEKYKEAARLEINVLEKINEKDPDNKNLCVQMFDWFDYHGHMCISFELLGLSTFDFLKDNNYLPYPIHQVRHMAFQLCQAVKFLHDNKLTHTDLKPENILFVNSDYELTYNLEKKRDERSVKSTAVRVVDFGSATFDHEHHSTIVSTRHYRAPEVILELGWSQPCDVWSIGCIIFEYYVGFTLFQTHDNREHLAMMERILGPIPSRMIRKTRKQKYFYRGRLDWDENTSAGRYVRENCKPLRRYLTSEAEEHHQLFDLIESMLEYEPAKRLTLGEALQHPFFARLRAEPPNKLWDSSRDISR
Note: in the data inactive means no Kd found up to 30 µM.

SMILES	Kd [1]	Kd [2]	Kd [3]	Kd [4]	Kd [5]	Kd [6]	Kd [7]
C=CC(=O)N1CCC[C@H](n2c(=O)n(-c3ccc(Oc4ccccc4)cc3)c3c(N)ncnc32)C1	> 30 µM (inactive)	> 30 µM (inactive)	> 30 µM (inactive)	> 30 µM (inactive)	> 30 µM (inactive)	> 30 µM (inactive)	> 30 µM (inactive)
C=CC(=O)Nc1cc2c(Nc3ccc(F)c(Cl)c3)ncnc2cc1C#CC(C)(C)N1CCN(C)CC1 [AV-412 FREE BASE]	> 30 µM (inactive)	> 30 µM (inactive)	> 30 µM (inactive)	> 30 µM (inactive)	> 30 µM (inactive)	> 30 µM (inactive)	> 30 µM (inactive)
Cn1cnc2c(F)c(Nc3ccc(Br)cc3F)c(C(=O)NOCCO)cc21 [BINIMETINIB]	> 30 µM (inactive)	> 30 µM (inactive)	> 30 µM (inactive)	> 30 µM (inactive)	> 30 µM (inactive)	> 30 µM (inactive)	> 30 µM (inactive)
COc1c(OCCCN2CCOCC2)ccc2c1N=C(NC(=O)c1cnc(N)nc1)N1CCN=C21 [COPANLISIB]	> 30 µM (inactive)	> 30 µM (inactive)	> 30 µM (inactive)	> 30 µM (inactive)	> 30 µM (inactive)	> 30 µM (inactive)	> 30 µM (inactive)
CCS(=O)(=O)N1CCN(c2ccc(Nc3ncc(C(N)=O)c(NC4CC4)n3)cc2)CC1 [Cerdulatinib Hydrochloride]	> 30 µM (inactive)	> 30 µM (inactive)	> 30 µM (inactive)	0.437 µM (active)	> 30 µM (inactive)	0.552 µM (active)	> 30 µM (inactive)
O=C(Nc1nc2cccc(-c3ccc(CN4CCS(=O)(=O)CC4)cc3)n2n1)C1CC1 [FILGOTINIB]	> 30 µM (inactive)	> 30 µM (inactive)	> 30 µM (inactive)	> 30 µM (inactive)	> 30 µM (inactive)	> 30 µM (inactive)	> 30 µM (inactive)
Cc1cccc(-c2nn3c(c2-c2ccnc4ccc(C(N)=O)cc24)CCC3)n1 [GALUNISERTIB]	> 30 µM (inactive)	> 30 µM (inactive)	> 30 µM (inactive)	> 30 µM (inactive)	> 30 µM (inactive)	0.495 µM (active)	> 30 µM (inactive)
O=C(Nc1cc(C(F)(F)F)cc(C(F)(F)F)c1)c1cc(Cl)ccc1O [IMD-0354]	> 30 µM (inactive)	> 30 µM (inactive)	> 30 µM (inactive)	> 30 µM (inactive)	> 30 µM (inactive)	> 30 µM (inactive)	> 30 µM (inactive)
CNC(=O)c1cccc2cc(Oc3ccnc4cc(OCC5(N)CC5)c(OC)cc34)ccc12 [LUCITANIB]	> 30 µM (inactive)	> 30 µM (inactive)	> 30 µM (inactive)	> 30 µM (inactive)	> 30 µM (inactive)	> 30 µM (inactive)	> 30 µM (inactive)
FC(F)(F)c1ccc(/C=C/c2nc(COc3ccc(CCCCn4ccnn4)cc3)co2)cc1 [MUBRITINIB]	> 30 µM (inactive)	> 30 µM (inactive)	> 30 µM (inactive)	> 30 µM (inactive)	> 30 µM (inactive)	> 30 µM (inactive)	> 30 µM (inactive)

Other lines, results leading:

Kd [1]	Kd [2]	Kd [3]	Kd [4]	Kd [5]	Kd [6]	Kd [7]	SMILES
> 30 µM (inactive)	> 30 µM (inactive)	> 30 µM (inactive)	> 30 µM (inactive)	> 30 µM (inactive)	> 30 µM (inactive)	3.22 µM (active)	Cc1csc(-c2nnc(Nc3ccc(Oc4ncccc4-c4ccnc(N)n4)cc3)c3ccccc23)c1 [AMG-900]
> 30 µM (inactive)	> 30 µM (inactive)	> 30 µM (inactive)	> 30 µM (inactive)	> 30 µM (inactive)	> 30 µM (inactive)	> 30 µM (inactive)	CCn1c(C(=O)N(C2CC2)C2CC2)cc2c3c(ncn3C)c(Nc3cc(C)n(C)n3)nc21 [BMS-911543]
> 30 µM (inactive)	> 30 µM (inactive)	> 30 µM (inactive)	> 30 µM (inactive)	> 30 µM (inactive)	> 30 µM (inactive)	> 30 µM (inactive)	COCC(=O)NC/C=C/c1ccc2ncnc(Nc3ccc(Oc4ccc(C)nc4)c(C)c3)c2c1 [CP-724714]
> 30 µM (inactive)	> 30 µM (inactive)	> 30 µM (inactive)	0.961 µM (active)	> 30 µM (inactive)	0.482 µM (active)	> 30 µM (inactive)	C#Cc1cccc(Nc2ncnc3cc(OC)c(OCCCCCCC(=O)NO)cc23)c1 [CUDC-101]
> 30 µM (inactive)	> 30 µM (inactive)	> 30 µM (inactive)	> 30 µM (inactive)	> 30 µM (inactive)	> 30 µM (inactive)	> 30 µM (inactive)	COc1ccc(S(=O)(=O)N(C(C)=O)c2ccccc2/C=C/c2cc[n+]([O-])cc2)cc1 [HMN-214]
> 30 µM (inactive)	> 30 µM (inactive)	> 30 µM (inactive)	> 30 µM (inactive)	> 30 µM (inactive)	> 30 µM (inactive)	> 30 µM (inactive)	NC1(c2ccc(-c3nc4ccn5c(=O)[nH]nc5c4cc3-c3ccccc3)cc2)CCC1 [MK-2206]
> 30 µM (inactive)	> 30 µM (inactive)	> 30 µM (inactive)	> 30 µM (inactive)	> 30 µM (inactive)	> 30 µM (inactive)	> 30 µM (inactive)	Cn1cc(-c2cnc3ccc4ccc(CS(=O)(=O)NCc5ccccn5)cc4c(=O)c3c2)cn1 [MK-8033]
0.808 µM (active)	0.066 µM (active)	> 30 µM (inactive)	> 30 µM (inactive)	> 30 µM (inactive)	1.95 µM (active)	> 30 µM (inactive)	Cc1nc(Nc2n[nH]c3c2CN(C(=O)N[C@H](CN(C)C)c2ccccc2)C3(C)C)c2sccc2n1 [PF-03758309]
